Laboratory results as given in patent US9592214B2, “Compounds for the treatment of autism in a baby child” (INSERM (INSTITUT NATIONAL DE LA SANTE ET DE LA RECHERCHE …, priority 2010, dated 2017).
Entries after “also recorded” stand apart in the source; their conditions may differ.

Assays:
[1] = tested on: hippocampal CA3 pyramidal cells; test: DFGABA in hippocampal CA3 pyramidal cells of offspring after in utero VPA / maternal bumetanide pretreatment; type: in vivo, rat; conditions: for DFGABA (mV), mean ± S.E.: P15 VPA rats, maternal bumetanide pretreatment (2-2.5 mg/kg in drinking water, 1 day before delivery)
Procedure: Time-mated female Wistar rats at gestational day E7-8 were housed under standard laboratory conditions. The in utero valproic acid (VPA) rodent model of autism spectrum disorders has been previously described in detail. Briefly, the sodium salt of VPA (Sigma-Aldrich) was dissolved in physiological saline solution to a concentration of 300 mg/ml. Pregnant rats received a single intra-peritoneal dose of 600 mg/kg on gestational day 12 (E12). The control dams received a single similar volume injection of saline at the same gestational time-point. Dams were housed individually and allowed to raise their own litters. The offspring were used for experiments on embryonic day 20 (E20) and postnatal (P) days 0, 2, 4, 7, 15 and 30 (after being weaned at P23). Experiments were carried out on offspring of either sex.
Experiments were performed on fetuses and neonatal rat pups. We removed E20 rats from deeply anesthetized dams [subcutaneous injection of a mixture of xylazine (Rompun 2%; used at 0.05%) and ketamine (Imalgene 1000 used at 50 g/l)]. Hippocampal slices ([…] thick) were prepared using a Microm tissue slicer (International GmbH, Germany) as described previously (Tyzio et al. 2006 Science 314, 1788; Tyzio et al, 2008, Eur J. Neurosci. 27(10):2515-28). Slices were kept in oxygenated (95% O2/5% CO2) artificial cerebrospinal fluid (ACSF) of the following composition (in mM): NaCl 126, KCl 3.5, CaCl2 2.0, MgCl2 1.3, NaHCO3 25, NaH2PO4 1.2 and glucose 11 (pH 7.4) at room temperature (20-22° C.) at least 1 hour before use.
For recordings, slices were placed into a conventional fully submerged chamber superfused with ACSF at a rate of 2-3 ml/min at room temperature. Patch clamp recordings from visually identified CA3 pyramidal cells in cell-attached configuration were performed using EPC-10 amplifier (HEKA Elektronik Dr. Schulze GmbH, Lambrecht/Pfalz, Germany). Patch pipette solution for recordings of single GABAA channels contained (in mM): NaCl 120, KCl 5, TEA-Cl 20, 4-aminopyridine 5, CaCl2 0.1, MgCl2 10, glucose 10, Hepes-NaOH 10 buffered to pH 7.2-7.3 and GABA 2 μM. Analysis of currents through single channels and current-voltage relationships were performed using Clampfit 9.2 (Axon Instruments, Union City, Calif.). Recordings were digitized (10 kHz) online with Digidata-1200 interface card (Axon Instruments, Union City, Calif.) and analyzed offline with Axon package, MiniAnalysis (S (Synaptsoft, Decatur, Ga.), and Origin (Microcal Software, Northampton, Mass.).
Bumetanide (10 μM), Oxytocin (1 μM) and Isoguvacine (2 μM) were directly added to the perfusion solutions. Bumetanide pretreatment (2-2.5 mg/kg) was given to the dams in drinking water. All drugs used were purchased from Sigma. SSR126768A (Sanofi-Synthelabo) pretreatment (1 mg/kg) was given to the dams in drinking water.
If the polarity of GABA actions at delivery produces long terms effects in offsprings, then restoring low [Cl^−]i and inhibitory GABA at delivery might restore physiological parameters in juvenile rodents. To test this hypothesis, pregnant females were treated orally 1 day before delivery with bumetanide (2-2.5 mg/kg in drinking water) and juvenile offspring neurons recorded at P15. […] In VPA rats, GABAergic inputs are excitatory and contribute to hyperexcitability of the network. Bumetanide decreases [Cl^−]i and consequently reduces contribution of excitatory GABAergic inputs in the overall network activity.

[2] = tested on: hippocampal CA3 pyramidal neurons; test: Whole-cell voltage clamp recordings of sEPSCs in offspring after maternal pretreatment; type: in vivo, rat; conditions: P15 VPA rats, maternal bumetanide pretreatment; −70 mV; result in words
Procedure: Standard whole-cell recordings were performed in coronal neocortical rat or mouse brain slices at room temperature (20-22° C.) from the soma of hippocampal CA3 neurons using an EPC-10 (HEKA Elektronik, Germany) amplifier and filtered at 3-10 kHz. The internal solution contained (in mM): 130 K-gluconate, 10 Na-gluconate, 4 NaCl, 4 MgATP, 4 phosphocreatine, 10 HEPES, and 0.3 GTP (pH 7.3 with KOH). Biocytin (final concentration 0.3-0.5%) was added to the pipette solution to label the neurons from which recordings were obtained. Neurons were visualized by using infrared DIC video microscopy. Spontaneous postsynaptic currents were recorded for […] at the reversal potentials for […] currents (−70 mV). It should be specifically noted that all recordings were made in normal ACSF (1.3 mM MgCl2). Stored data were analyzed using the Mini Analysis 6.0.3 (Synaptosoft Inc., Chapell Hill, N.C.) and Origin (MicroCal, Northampton, Mass.) software. To minimize potential sampling bias, the pups from at least three deliveries for each condition were studied. Data are expressed as mean±S.E.M.
Bumetanide (10 μM), Oxytocin (1 μM) and Isoguvacine (2 μM) were directly added to the perfusion solutions. Bumetanide pretreatment (2-2.5 mg/kg) was given to the dams in drinking water. All drugs used were purchased from Sigma. […]

CCCCNc1cc(C(=O)O)cc(S(N)(=O)=O)c1Oc1ccccc1 [bumetanide]
DFGABA values in offsprings ([1]; P15 VPA offspring, maternal bumetanide pretreatment, result in words): restored control DFGABA values | DFGABA (mV), mean ± S.E. [1]: 0.4±1.1 mV | DFGABA (mV), mean ± S.E. ([1]; listed as BUM): 0.4 ± 1.1 (n = 58) mV | sEPSCs frequency [2]: decreases; also recorded: significantly reduced
